The target in the first test is T1, farnesyltransferase (Rattus norvegicus, UniProt Q02293+Q04631).
T1 construct: The enzyme can be purified according to Cell, 62: 81-88 (1990), utilizing steps one, two, and three; from tissue; host or cells: rat brain
T1 sequence (Q02293 whole entry, one chain of several): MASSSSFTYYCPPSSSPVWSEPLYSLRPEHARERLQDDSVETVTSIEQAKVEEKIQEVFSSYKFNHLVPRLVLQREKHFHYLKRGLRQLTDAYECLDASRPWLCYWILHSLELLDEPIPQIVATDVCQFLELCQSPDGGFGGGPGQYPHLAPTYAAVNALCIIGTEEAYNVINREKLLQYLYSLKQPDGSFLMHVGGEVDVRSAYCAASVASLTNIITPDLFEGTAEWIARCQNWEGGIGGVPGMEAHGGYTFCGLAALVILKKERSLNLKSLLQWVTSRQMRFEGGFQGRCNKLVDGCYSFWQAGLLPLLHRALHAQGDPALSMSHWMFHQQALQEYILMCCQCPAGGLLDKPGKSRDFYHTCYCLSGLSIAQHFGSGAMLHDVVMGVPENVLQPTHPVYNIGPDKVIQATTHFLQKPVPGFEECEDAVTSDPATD
In words: Inhibition of farnesyltransferase (3H-farnesyldiphosphate / H-Ras filter assay). The following applies: test compound at 10^−8 M; 3H-farnesyldiphosphate 0.6 μM, H-Ras 5.0 μM, 37° C., 30 minutes. Format: biochemical.
By inhibition is commonly meant the share of the control response that was lost under treatment. A lower inhibition goes with a weak effect. For the molecule `Cn1cncc1C(O)(COc1ccc(C#N)cc1-c1cc(Cl)cc(Cl)c1)c1ccc(C#N)cc1` (stereo not shown) [Example 73, 3′,5′-dichloro-6-(2-(4-cyanophenyl)-2-hydroxy-2-(1-methyl-1H-imidazol-5-yl)ethoxy)-1,1′-biphenyl-3-carbonitrile], the inhibition at 0.01 µM came out at 96%.

In turn, `Cn1cncc1C(F)(COc1ccc(C#N)cc1-c1cc(Cl)cc(Cl)c1)c1ccc(C#N)cc1` (stereo not shown) [Example 74, 3′,5′-dichloro-6-(2-(4-cyanophenyl)-2-fluoro-2-(1-methyl-1H-imidazol-5-yl)ethoxy)-1,1′-biphenyl-3-carbonitrile] displayed an inhibition at 0.01 µM of 95%.

In the case of `Cn1cncc1C(O)(COc1ccc(C#N)cc1-c1cccc(F)c1)c1ccc(C#N)cc1` (stereo not shown) [Example 75, 6-(2-(4-cyanophenyl)-2-hydroxy-2-(1-methyl-1H-imidazol-5-yl)ethoxy)-3′-fluoro-1,1′-biphenyl-3-carbonitrile], the inhibition at 0.01 µM came to 96%.

In turn, `Cn1cncc1C(F)(COc1ccc(C#N)cc1-c1cccc(F)c1)c1ccc(C#N)cc1` (stereo not shown) [Example 76, 6-(2-(4-cyanophenyl)-2-fluoro-2-(1-methyl-1H-imidazol-5-yl)ethoxy)-3′-fluoro-1,1′-biphenyl-3-carbonitrile] yielded an inhibition at 0.01 µM of 95%.

`Cn1cncc1C(O)(COc1ccc(C#N)cc1-c1cccc(Cl)c1)c1ccc(C#N)cc1` (stereo not shown) [Example 77, 3′-chloro-6-(2-(4-cyanophenyl)-2-hydroxy-2-(1-methyl-1H-imidazol-5-yl)ethoxy)-1,1′-biphenyl-3-carbonitrile] showed an inhibition at 0.01 µM of 98%.

On to `Cn1cncc1C(F)(COc1ccc(C#N)cc1-c1cccc(Cl)c1)c1ccc(C#N)cc1` (stereo not shown) [Example 78, 3′-chloro-6-(2-(4-cyanophenyl)-2-fluoro-2-(1-methyl-1H-imidazol-5-yl)ethoxy)-1,1′-biphenyl-3-carbonitrile], for which the inhibition at 0.01 µM is 97%.

In turn, `Cn1cncc1C(O)(COc1ccc(C#N)cc1-c1ccc2c(c1)OC(F)(F)O2)c1ccc(C#N)cc1` (stereo not shown) [Example 79, 4-(2-(4-cyanophenyl)-2-hydroxy-2-(1-methyl-1H-imidazol-5-yl)ethoxy)-3-(2,2-difluoro-1,3-benzodioxol-5-yl)benzonitrile] returned an inhibition at 0.01 µM of 96%.

`Cn1cncc1C(F)(COc1ccc(C#N)cc1-c1ccc2c(c1)OC(F)(F)O2)c1ccc(C#N)cc1` (stereo not shown) [Example 80, 4-(2-(4-cyanophenyl)-2-fluoro-2-(1-methyl-1H-imidazol-5-yl)ethoxy)-3-(2,2-difluoro-1,3-benzodioxol-5-yl)benzonitrile] gave an inhibition at 0.01 µM of 90%.

Regarding `Cn1cncc1C(O)(COc1ccc(C#N)cc1-c1cccc2ccccc12)c1ccc(C#N)cc1` (stereo not shown) [Example 81, 4-(2-(4-cyanophenyl)-2-hydroxy-2-(1-methyl-1H-imidazol-5-yl)ethoxy)-3-(1-naphthyl)benzonitrile], testing at 0.01 µM gave an inhibition of 90%.

In the case of `N#Cc1ccc(C(O)(COc2ccc(C#N)cc2-c2ccc(OC(F)(F)F)cc2)c2cncs2)cc1` (stereo not shown) [Example 82, 6-(2-(4-cyanophenyl)-2-hydroxy-2-(1,3-thiazol-5-yl)ethoxy)-4′-(trifluoromethoxy)-1,1′-biphenyl-3-carbonitrile], testing at 0.01 µM gave an inhibition of 15%.

As to `Cn1cncc1C(N)(COc1ccc(C#N)cc1-c1ccc(OC(F)(F)F)cc1)c1ccc(C#N)cc1` (stereo not shown) [Example 83, 6-(2-amino-2-(4-cyanophenyl)-2-(1-methyl-1H-imidazol-5-yl)ethoxy)-4′-(trifluoromethoxy)-1,1′-biphenyl-3-carbonitrile], the inhibition at 0.01 µM worked out at 96%.

`COc1cccc(-c2cc(C#N)ccc2N(C)CC(O)(c2ccc(C#N)cc2)c2cncn2C)c1` (stereo not shown) [Example 84, 6-((2-(4-cyanophenyl)-2-hydroxy-2-(1-methyl-1H-imidazol-5-yl)ethyl)(methyl)amino)-3′-methoxy-1,1′-biphenyl-3-carbonitrile] yielded an inhibition at 0.01 µM of 92%.

As to `COc1cccc(-c2cc(C#N)ccc2N(C)CC(F)(c2ccc(C#N)cc2)c2cncn2C)c1` (stereo not shown) [Example 85, 6-((2-(4-cyanophenyl)-2-fluoro-2-(1-methyl-1H-imidazol-5-yl)ethyl)(methyl)amino)-3′-methoxy-1,1′-biphenyl-3-carbonitrile], at 0.01 µM the inhibition was 65%.

`CN(CC(O)(c1ccc(C#N)cc1)c1cncn1C)c1ccc(C#N)cc1-c1ccc(OC(F)(F)F)cc1` (stereo not shown) [Example 86, 6-((2-(4-cyanophenyl)-2-hydroxy-2-(1-methyl-1H-imidazol-5-yl)ethyl)(methyl)amino)-4′-(trifluoromethoxy)-1,1′-biphenyl-3-carbonitrile]: 0.01 µM produced 94% inhibition.

`Cc1ccnc(NC(=O)c2cc(C#N)ccc2COC(c2ccc(C#N)cc2)c2cncn2C)c1` (stereo not shown) [Example 87, 5-cyano-2-(((4-cyanophenyl)(1-methyl-1H-imidazol-5-yl)methoxy)methyl)-N-(4-methylpyridin-2-yl)benzamide]: the inhibition at 0.01 µM stood at 91%.

On to `Cn1cncc1C(OCc1ccc(C#N)cc1C(=O)Nc1cccc(Cl)c1)c1ccc(C#N)cc1` (stereo not shown) [Example 88, N-(3-chlorophenyl)-5-cyano-2-(((4-cyanophenyl)(1-methyl-1H-imidazol-5-yl)methoxy)methyl)benzamide], for which the inhibition at 0.01 µM was 90%.

`CCCn1cc(-c2cc(C#N)ccc2COC(c2ccc(C#N)cc2)c2cncn2C)ccc1=O` (stereo not shown) [Example 91, 4-(((4-cyanophenyl)(1-methyl-1H-imidazol-5-yl)methoxy)methyl)-3-(6-oxo-1-propyl-1,6-dihydropyridin-3-yl)benzonitrile]: 0.01 µM produced 77% inhibition.

`CCCOc1ccc(-c2cc(C#N)ccc2COC(c2ccc(C#N)cc2)c2cncn2C)cn1` (stereo not shown) [Example 92, 4-(((4-cyanophenyl)(1-methyl-1H-imidazol-5-yl)methoxy)methyl)-3-(6-propoxypyridin-3-yl)benzonitrile]: at 0.01 µM the inhibition was 94%.

The same test, now with this note: test compound at 10^−9 M (stated in the cell); 3H-farnesyldiphosphate 0.6 μM, H-Ras 5.0 μM, 37° C., 30 minutes.
The molecule `Cn1cncc1C(OCc1ccc(C#N)nc1-c1ccc2c(c1)OC(F)(F)O2)c1ccc(C#N)cc1` (stereo not shown) [Example 89, 5-(((4-cyanophenyl)(1-methyl-1H-imidazol-5-yl)methoxy)methyl)-6-(2,2-difluoro-1,3-benzodioxol-5-yl)pyridine-2-carbonitrile] registered an inhibition at 0.001 µM of 75%.

Values taken from patent publication US20020115640A1, “Farnesyltransferase inhibitors” (priority 2000, published 2002).
